Data: patent US20240132477A1, “Benzimidazole Derivatives and Their Use As Inhibitors of ITK For The Treatment of Skin Disease” (PFIZER INC., priority 2020, published 2024)
Where two headings read alike, the source gives them in different places.

How the values were obtained:
[1] = biological target: IL-2-Inducible T-Cell Kinase (ITK) (Homo sapiens (Human), UniProt Q08881); assay: ITK enzyme assay; format: biochemical; settings: geometric mean of count n; ITK FL enzyme, BTK peptide substrate
Protocol: IL-2-Inducible T-Cell Kinase (ITK) Activity, IC50 (uM)
ITK activity was determined by measuring the effect of a test compound in an ITK enzyme assay.
1.0 M HEPES Buffer pH 7.5 solution was prepared as follows: 238.3 g HEPES free acid (Sigma) and 800 mL of water were combined, and the mixture was stirred until complete dissolution. The pH was adjusted to 7.5 via titration with 5N NaOH and the volume adjusted to 1000 mL. The solution was filtered and sterilized.
ITK assay buffer was prepared as follows: 50 mL of HPLC-grade water was treated with 2 mL of 1.0 M HEPES Buffer, 500 μL of 2% Gelatin (Sigma), 1.0 mL of aqueous MgCl2 solution (1.0 M), and 1.0 mL of aqueous glutathione solution (0.5 M), and the solution was mixed. The solution was brought to 99 mL in a graduated cylinder by addition of water and sterilized through a 0.2 μm filter. 0.1 mL of Brij-35™ Surfact-AmpS™ Detergent Solution (10% w/v aqueous solution, ThermoFisher) and 1.0 mL of ATP (Teknova, 100 mM) were added and the solution was mixed.
Preparation of 1.33×ITK enzyme solution was as follows: 49.99 mL of ITK assay buffer was treated with 4.1 μL of ITK enzyme (ITK FL (N-Flag and C-His tagged, ˜72 kDa) Lake Pharma, 0.25 mg/ml in a buffer containing 25 mM Tris pH 7.8, 150 mM NaCl, 10% glycerol and 2 mM TCEP) and the mixture was gently agitated. The resulting solution was stored on ice. 30 Minutes prior to use, the enzyme solution was removed from ice and equilibrated to RT by incubation in a RT water bath.
Preparation of 4×ITK substrate solution was as follows: 50 mL of ITK assay buffer was treated with 100 μL of BTK peptide (China Peptide Company, 2 mM stock solution in DMSO). The tube was capped, mixed by gently inverting the tube, and then stored on ice. 30 Minutes prior to use, the substrate solution was removed from ice and equilibrated to RT by incubation in a RT water bath.
At the time of assay, 7.5 μL of the 1.33×ITK enzyme solution was added to plate wells containing 0.1 μL of varying concentrations of test compound in DMSO. The plate was incubated 30 min at RT. The plate wells were each treated with 2.5 uL of the 4×ITK substrate solution and the plate was sealed (TopSeal™, Perkin Elmer). The plate was spun at 1000 rpm for 30 sec and then incubated for 60 min at RT. The seal was removed, and each well was treated with 10 μL of Stop/Detect Buffer (20 mM HEPES pH 7.5, 0.01% gelatin, 1 nM LANCE PT66 (Perkin Elmer), 16.5 μg/ml Surelight APC (Perkin Elmer), 10 mM EDTA, 250 mM NaCl). The plate was again covered and was spun at 1000 rpm for 30 seconds. The plate was allowed to incubate overnight at RT and in a closed carrier to reduce dehydration. The seal was removed, and the fluorescence was read with a plate reader with […]. The concentrations and resulting effect values for the tested compound were plotted and the concentration of compound required for 50% effect (IC50) was determined with the four-parameter logistic dose response equation.

[2] = system: IL-2 in supernatants from activated CD4+ human T-cells; assay: IL-2 inhibition in supernatants from activated CD4+ human T-cells (cisbio HTRF); format: cell-based; settings: T-cell, read-out: IL-2 IC50
Protocol: IL-2-Inhibition Activity, IC50 (uM)
IL-2 inhibition activity in supernatants from activated CD4+ human T-cells was determined by measuring the effect of a test compound on the activity using the cisbio HTRF™ technology.
Human CD4+ T cells were activated with CD3/CD28 for 3 days and expanded for an additional 4-6 days (7 to 9 days total). On day 0, frozen CD4+ T cells were thawed, treated with CD3/CD28 Dynabeads, and incubated at 37° C./5% CO2. On day 3, the beads were removed, and the cells were diluted to 5×10^5 cells/cm^2, placed in G-Rex10 flask, and incubated at 37° C./5% CO2. On day 7 to day 9 the cells were removed from the G-Rex flasks, counted and diluted back to 1×10^6 cells/ml in standard tissue culture flask.
The expanded CD4+ T-cells were centrifuged at 300×g for 10 minutes and resuspended to 0.5 million cells per ml (30,000 cells/well). 60 μl of CD4+ T cells were added per well to a 384 well plate containing 0.1 μL of varying concentrations of test compound in DMSO. The plates were incubated for 15 min at 37° C./5% CO2. 20 μl of diluted ImmunoCult™ (STEMCELL Technologies, 1:12.5 in T cell assay media) were added to all wells of the plate (1:50 final assay concentration). The plates were incubated for an additional 20 to 24 hrs at 37° C./5% CO2. The plates were centrifuged at 300×g for 10 minutes. 16 μL of supernatant was removed and combined with 4 μl of IL-2 HTRF Abs. (cisbio kit). Plates were incubated for 3 hours at RT and read with an EnVision plate reader at 665 nm and 615 nm wavelengths. The concentrations and resulting effect values for the tested compound were plotted and the concentration of compound required for 50% effect (IC50) was determined with the four-parameter logistic dose response equation.

[3] = biological target: Tropomyosin Receptor Kinase A (TRKA, NTRK1 enzyme) (Homo sapiens (Human), UniProt P04629); assay: TRKA (NTRK1) ThermoFisher Z'-LYTE assay; format: biochemical; settings: read-out: TRKA % inhibition
Sequence of Tropomyosin Receptor Kinase A (TRKA, NTRK1 enzyme) (P04629 33-796): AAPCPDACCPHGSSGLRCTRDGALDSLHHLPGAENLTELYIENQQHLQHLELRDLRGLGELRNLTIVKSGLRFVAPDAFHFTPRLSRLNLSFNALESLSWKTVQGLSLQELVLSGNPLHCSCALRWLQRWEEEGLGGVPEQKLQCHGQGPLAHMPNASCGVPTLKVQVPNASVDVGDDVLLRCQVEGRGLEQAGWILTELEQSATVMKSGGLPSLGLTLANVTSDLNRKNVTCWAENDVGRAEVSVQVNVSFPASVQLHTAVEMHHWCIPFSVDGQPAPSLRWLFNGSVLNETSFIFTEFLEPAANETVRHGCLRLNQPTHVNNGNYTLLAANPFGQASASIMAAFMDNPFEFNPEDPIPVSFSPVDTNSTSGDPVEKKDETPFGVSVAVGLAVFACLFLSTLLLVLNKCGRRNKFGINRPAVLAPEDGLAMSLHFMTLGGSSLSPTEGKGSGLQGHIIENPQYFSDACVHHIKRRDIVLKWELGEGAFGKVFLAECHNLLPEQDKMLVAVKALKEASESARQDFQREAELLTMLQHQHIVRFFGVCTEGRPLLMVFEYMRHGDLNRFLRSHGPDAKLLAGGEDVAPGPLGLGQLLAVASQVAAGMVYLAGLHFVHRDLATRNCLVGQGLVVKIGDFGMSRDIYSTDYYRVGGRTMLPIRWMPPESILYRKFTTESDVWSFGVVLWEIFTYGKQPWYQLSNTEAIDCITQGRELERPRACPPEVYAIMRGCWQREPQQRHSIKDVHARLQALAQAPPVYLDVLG
Protocol: Tropomyosin Receptor Kinase a (TRKA) Activity, % Inhibition
TRKA, also known as neurotrophic tyrosine kinase receptor type 1 (NTKR1) activity was determined by measuring the effect of a test compound on the activity against the NTRK1 enzyme using the ThermoFisher Z′-LYTE Assay fluorescence-based coupled enzyme format (www.thermofisher.com/selectscreen). Test compounds were screened at a fixed concentration of 1 uM and the % inhibition was determined compared to controls at a fixed ATP concentration of 1 mM. The resulting effect value for the tested compound was compared to the assay controls to determine the % inhibition (%). % Inhibition (%) values for compounds of the invention are presented in the Table that follows.

[4] = geometric mean of count n, activated CD4+ human T-cells, 20 to 24 hrs
[5] = test compound 1 uM, ATP 1 mM, arithmetic mean of count n

Sequence of IL-2-Inducible T-Cell Kinase (ITK) (Q08881 whole entry): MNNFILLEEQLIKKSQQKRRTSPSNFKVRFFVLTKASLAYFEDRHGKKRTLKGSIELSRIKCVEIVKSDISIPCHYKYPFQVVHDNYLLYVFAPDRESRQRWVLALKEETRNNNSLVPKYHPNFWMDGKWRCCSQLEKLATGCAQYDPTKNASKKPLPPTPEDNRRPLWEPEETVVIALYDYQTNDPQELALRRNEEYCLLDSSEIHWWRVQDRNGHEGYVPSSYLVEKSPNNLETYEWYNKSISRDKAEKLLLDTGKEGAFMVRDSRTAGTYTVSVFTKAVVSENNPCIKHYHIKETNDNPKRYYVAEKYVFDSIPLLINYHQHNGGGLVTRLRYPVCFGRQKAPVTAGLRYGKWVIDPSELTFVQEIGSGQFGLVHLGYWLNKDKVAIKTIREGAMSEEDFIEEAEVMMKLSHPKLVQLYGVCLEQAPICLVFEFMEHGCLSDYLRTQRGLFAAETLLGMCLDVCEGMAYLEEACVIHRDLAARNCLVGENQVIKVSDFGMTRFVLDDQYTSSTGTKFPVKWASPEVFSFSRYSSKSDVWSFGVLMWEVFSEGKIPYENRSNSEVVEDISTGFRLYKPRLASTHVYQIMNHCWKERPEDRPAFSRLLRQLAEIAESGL

SMILES	IC50 [1] [nM]	IC50 [2, 4] [nM]	inhibition at 1 µM [3, 5] [%]	IC50 ([2]; Homo sapiens) [nM]	inhibition at 1 µM [3] [%]
CC(=O)Nc1cc2nc(-c3n[nH]c4c3C[C@@H]3C[C@]3(C)C4)[nH]c2cc1C [Example 4, N-(6-methyl-2-((4aS,5aR)-5a-methyl-1,4,4a,5,5a,6-hexahydrocyclopropa[f]indazol-3-yl)-1H-benzo[d]imidazol-5-yl)acetamide]	71	391	105	–	–
COc1cc2[nH]c(-c3n[nH]c4c3C[C@@H]3C[C@]3(C)C4)nc2cc1N(C)C(C)=O [Example 6, N-(6-methoxy-2-((4aS,5aR)-5a-methyl-1,4,4a,5,5a,6-hexahydrocyclopropa[f]indazol-3-yl)-1H-benzo[d]imidazol-5-yl)-N-methylacetamide]	37	173	103	–	–
COCCOc1cc2[nH]c(-c3n[nH]c4c3C[C@@H]3C[C@]3(C)C4)nc2cc1N(C)C(C)=O [Example 7, N-(6-(2-methoxyethoxy)-2-((4aS,5aR)-5a-methyl-1,4,4a,5,5a,6-hexahydrocyclopropa[f]indazol-3-yl)-1H-benzo[d]imidazol-5-yl)-N-methylacetamide]	13	595	105	–	–
Cc1cc2[nH]c(-c3n[nH]c4c3C[C@@H]3C[C@]3(C)C4)nc2cc1N(C)C(=O)CN(C)C(=O)C(C)C [Example 30, N-Methyl-N-(2-(methyl(6-methyl-2-((4aS,5aR)-5a-methyl-1,4,4a,5,5a,6-hexahydrocyclopropa[f]indazol-3-yl)-1H-benzo[d]imidazol-5-yl)amino)-2-oxoethyl)isobutyramide]	3	–	–	51	98
COC(C)(C)C(=O)N(C)c1cc2nc(-c3n[nH]c4c3C[C@@H]3C[C@]3(C)C4)[nH]c2cc1C [Example 39, 2-Methoxy-N,2-dimethyl-N-(6-methyl-2-((4aS,5aR)-5a-methyl-1,4,4a,5,5a,6-hexahydrocyclopropa[f]indazol-3-yl)-1H-benzo[d]imidazol-5-yl)propenamide]	74	268	–	–	–
Cc1cc2[nH]c(-c3n[nH]c4c3C[C@@H]3C[C@]3(C)C4)nc2cc1N(C)C(=O)[C@H]1CCOC1 [Example 40, (S)-N-Methyl-N-(6-methyl-2-((4aS,5aR)-5a-methyl-1,4,4a,5,5a,6-hexahydrocyclopropa[f]indazol-3-yl)-1H-benzo[d]imidazol-5-yl)tetrahydrofuran-3-carboxamide]	13	114	–	–	–

Further lines, with some results ahead:

IC50 [1] [nM]	IC50 [2, 4] [nM]	inhibition at 1 µM [3, 5] [%]	SMILES	IC50 ([2]; Homo sapiens) [nM]	inhibition at 1 µM [3] [%]
4	15	95	CC(=O)N(C)c1ccc2[nH]c(-c3n[nH]c4c3C[C@@H]3C(F)(F)[C@]3(C)C4)nc2c1 [Example 2, N-(2-((4aS,5aR)-5,5-difluoro-5a-methyl-1,4,4a,5,5a,6-hexahydrocyclopropa[f]indazol-3-yl)-1H-benzo[d]imidazol-5-yl)-N-methylacetamide]	–	–
10	81	100	CC(=O)N(C)c1cc2nc(-c3n[nH]c4c3C[C@@H]3C[C@]3(C)C4)[nH]c2cc1C [Example 17, N-Methyl-N-(6-methyl-2-((4aS,5aR)-5a-methyl-1,4,4a,5,5a,6-hexahydrocyclopropa[f]indazol-3-yl)-1H-benzo[d]imidazol-5-yl)acetamide]	–	–
10	89	97	Cc1cc2[nH]c(-c3n[nH]c4c3C[C@@H]3C[C@]3(C)C4)nc2cc1N(C)C(=O)[C@H]1CCCO1 [Example 23, (R)-N-Methyl-N-(5-methyl-2-((4aS,5aR)-5a-methyl-1,4,4a,5,5a,6-hexahydrocyclopropa[f]indazol-3-yl)-1H-benzo[d]imidazol-6-yl)tetrahydrofuran-2-carboxamide]	–	–
6	61	97	Cc1cc2[nH]c(-c3n[nH]c4c3C[C@@H]3C[C@]3(C)C4)nc2cc1N(C)C(=O)[C@@H]1CCOC1 [Example 29, (R)-N-Methyl-N-(6-methyl-2-((4aS,5aR)-5a-methyl-1,4,4a,5,5a,6-hexahydrocyclopropa[f]indazol-3-yl)-1H-benzo[d]imidazol-5-yl)tetrahydrofuran-3-carboxamide]	–	–
